Assay results published in publication PMC4050313, “Panaxadiol and Panaxatriol Derivatives as Anti-Hepatitis B Virus Inhibitors” (Natural Products and Bioprospecting, 2014).

Tests used:
HepG 2.2.15 cells = assay: Cytotoxicity, modified MTT method; type: cell-based; conditions: 50 % cytotoxicity concentration in HepG 2.2.15 cells; means of two independent experiments
Protocol: (§1) Based on our previous description, inhibitory activity on HBV (HBsAg, HBeAg and HBV DNA) was evaluated. […] Cytotoxicity was assayed with a modified 3-(4,5-dimethylthiazole-2-yl)-2,5-diphenyltetrazolium bromide (MTT) method (Gibco Invitrogen, Carlsbad, CA, USA). The anti-HBV antigen secretion activities were determined by the enzyme linked immunosorbent assay (ELISA; Autobio Diagnostics Co., Ltd, China). A real-time PCR assay was applied to detect the inhibitory activity on HBV DNA replication.

HBsAg secretion = assay: microbe, parasite or virus in culture; type: cell-based, Hepatitis B virus; conditions: for IC50: HepG 2.2.15 cells, means of two independent experiments, read-out: HBsAg IC50; for growth of inhibition on HBsAg secretion: relative to inactive compound 8
Protocol: as §1

HBeAg secretion = assay: microbe, parasite or virus in culture; type: cell-based, Hepatitis B virus; conditions: HepG 2.2.15 cells; means of two independent experiments; read-out: HBeAg IC50
Protocol: as §1

HBV DNA replication = assay: Inhibition of HBV DNA replication, real-time PCR, HepG 2.2.15 cells; type: cell-based, Hepatitis B virus; conditions: for IC50: HepG 2.2.15 cells, means of two independent experiments; for growth of inhibition on HBV DNA replication: relative to inactive compound 8
Protocol: as §1

[1] = system: liver injury induced by D-galactosamine and lipopolysaccharide; design: method as in PMID 12880307; conditions: liver injury induced by D-galactosamine and lipopolysaccharide in mice; cited from earlier work

SMILES	CC50 (HepG 2.2.15 cells)	IC50 (HBsAg secretion)	IC50 (HBeAg secretion)	IC50 (HBV DNA replication)	hepatoprotective activity [1]	growth of inhibition on HBsAg secretion (HBsAg secretion)	growth of inhibition on HBV DNA replication (HBV DNA replication)
CC1(C)CCCC(C)(C2CCC3(C)C2C(O)CC2C4(C)CCC(OC(=O)c5cccs5)C(C)(C)C4CCC23C)O1 (centres unmarked) [Compound 4, 3-O-(2′-Thenoyl) panaxadiol]	> 1910 µM	30.8 µM	18.2 µM	16.5 µM	–	–	–
CC1(C)CCCC(C)(C2CCC3(C)C2C(=O)CC2C4(C)CCC(OC(=O)CCC(=O)O)C(C)(C)C4CCC23C)O1 [Compound 28, (20R)-20,25-Epoxy-3-O-succinyl-dammaran-12-dione]	> 1940 µM	> 1940 µM	> 1940 µM	> 485 µM	–	–	–
CC1(C)CCCC(C)(C2CCC3(C)C2C(O)CC2C4(C)CCC(OC(=O)COCC(=O)O)C(C)(C)C4CCC23C)O1 (centres unmarked) [Compound 16, 3-O-Diglycolyl panaxadiol]	> 1700 µM	> 1700 µM	901 µM	51.9 µM	–	–	–
O=C(O)c1cccs1 [TA, thiophenezoic acid, reference compound]	–	–	–	1770 µM	–	–	–
CC1(C)CCCC(C)(C2CCC3(C)C2C(O)CC2C4(C)CCC(OC(=O)CCCC(=O)O)C(C)(C)C4CCC23C)O1 (centres unmarked) [Compound 15, 3-O-Glutaryl panaxadiol]	86.6 µM	53.8 µM	101 µM	28.2 µM	–	–	–
CC1(C)CCCC(C)(C2CCC3(C)C2C(O)CC2C4(C)CCC(OC(=O)c5cccnc5)C(C)(C)C4C(OC(=O)c4cccnc4)CC23C)O1 (centres unmarked) [Compound 24, 3,6-O-Dinicotinoyl-panaxatriol]	1650 µM	1650 µM	1070 µM	412 µM	–	–	–
CC1(C)CCCC(C)(C2CCC3(C)C2C(O)CC2C4(C)CCC(OC(=O)c5cccnc5)C(C)(C)C4CCC23C)O1 (centres unmarked) [Compound 11, 3-O-Nicotinoyl panaxadiol]	1150 µM	1150 µM	1150 µM	117 µM	–	–	–
Cc1ccsc1C(=O)OC1CCC2(C)C(CCC3(C)C2CC(O)C2C(C4(C)CCCC(C)(C)O4)CCC23C)C1(C)C (centres unmarked) [Compound 5, 3-O-(3′-Methyl)-thenoyl panaxadiol]	> 2020 µM	> 2020 µM	> 2020 µM	> 505 µM	–	–	–
CC(=O)OC1CC2(C)C(CC(O)C3C(C4(C)CCCC(C)(C)O4)CCC32C)C2(C)CCC(OC(C)=O)C(C)(C)C12 (centres unmarked) [Compound 20, 3,6-O-Diacetyl-panaxatriol]	> 2100 µM	> 2100 µM	> 2100 µM	545 µM	–	–	–
CC1(C)CCCC(C)(C2CCC3(C)C2C(O)CC2C4(C)CCC(OC(=O)CCC(=O)O)C(C)(C)C4C(OC(=O)CCC(=O)O)CC23C)O1 (centres unmarked) [Compound 21, 3,6-O-Disuccinyl panaxatriol]	> 1940 µM	> 1940 µM	> 1940 µM	> 485 µM	–	–	–
CC1(C)CCCC(C)(C2CCC3(C)C2C(O)CC2C4(C)CCC(OC(=O)c5cccs5)C(C)(C)C4C(OC(=O)c4cccs4)CC23C)O1 (centres unmarked) [Compound 23, 3,6-O-Di(2′-thenoyl)-panaxatriol]	> 2090 µM	–	–	> 2090 µM	–	–	–
COCC(=O)OC1CC2(C)C(CC(O)C3C(C4(C)CCCC(C)(C)O4)CCC32C)C2(C)CCC(OC(=O)COC)C(C)(C)C12 (centres unmarked) [Compound 25, 3,6-O-Di(2′-methoxyl)acetoxyl-panaxatriol]	> 1500 µM	> 1500 µM	974 µM	> 375 µM	–	–	–
CC(C)=CCC[C@](C)(O[C@@H]1O[C@H](CO)[C@@H](O)[C@H](O)[C@H]1O)[C@H]1CC[C@]2(C)[C@@H]1[C@H](O)C[C@@H]1[C@@]3(C)CC[C@H](O)C(C)(C)[C@@H]3[C@@H](O[C@@H]3O[C@H](CO)[C@@H](O)[C@H](O)[C@H]3O[C@@H]3OC[C@@H](O)[C@H](O)[C@H]3O)C[C@]12C [notoginsenoside R1]	–	–	–	–	showed hepatoprotective activity	–	–
CC1(C)CCC[C@](C)([C@H]2CC[C@]3(C)[C@@H]2[C@H](O)C[C@@H]2[C@@]4(C)CC[C@H](OC(=O)c5ccccc5)C(C)(C)[C@@H]4CC[C@]23C)O1 [Compound 8, 3-O-Benzoyl panaxadiol]	> 2000 µM	> 2000 µM	> 2000 µM	501 µM	–	–	–
CC1(C)CCCC(C)(C2CCC3(C)C2C(O)CC2C4(C)CCC(OC(=O)CCC(=O)O)C(C)(C)C4CCC23C)O1 (centres unmarked) [Compound 14, 3-O-Succinyl panaxadiol]	179 µM	199 µM	169 µM	16.7 µM	–	–	–
CC1(C)CCCC(C)(C2CCC3(C)C2C(O)CC2C4(C)CCC(OC(=O)c5ccccc5O)C(C)(C)C4CCC23C)O1 (centres unmarked) [Compound 9, 3-O-Salicyloyl panaxadiol]	44.4 µM	43.3 µM	–	9.02 µM	–	60 folds	60 folds

SMILES	CC50 (HepG 2.2.15 cells)	IC50 (HBsAg secretion)	IC50 (HBeAg secretion)	IC50 (HBV DNA replication)	hepatoprotective activity [1]	growth of inhibition on HBsAg secretion (HBsAg secretion)	growth of inhibition on HBV DNA replication (HBV DNA replication)
CC(C)=CCC[C@](C)(O[C@@H]1O[C@H](CO)[C@@H](O)[C@H](O)[C@H]1O)[C@H]1CC[C@]2(C)[C@@H]1[C@H](O)C[C@@H]1[C@@]3(C)CC[C@H](O[C@@H]4O[C@H](CO)[C@@H](O)[C@H](O)[C@H]4O[C@@H]4O[C@H](CO)[C@@H](O)[C@H](O)[C@H]4O)C(C)(C)[C@@H]3CC[C@]12C [Rd, ginsenoside Rd]	–	–	–	–	showed hepatoprotective activity	–	–
CC1(C)CCCC(C)(C2CCC3(C)C2C(O)CC2C4(C)CCC(OC(=O)c5ccco5)C(C)(C)C4C(OC(=O)c4ccco4)CC23C)O1 (centres unmarked) [Compound 22, 3,6-O-Di(2′-furoyl)-panaxatriol]	530 µM	> 1280 µM	> 1280 µM	> 320 µM	–	–	–
CCOCC(=O)O[C@H]1CC[C@]2(C)[C@H]3C[C@@H](O)[C@@H]4[C@@H]([C@@]5(C)CCCC(C)(C)O5)CC[C@@]4(C)[C@]3(C)CC[C@H]2C1(C)C [Compound 13, 3-O-2′-Ethyoxyl-acetyl panaxadiol]	1490 µM	589 µM	> 2360 µM	> 591 µM	–	–	–
CC1(C)CCCC(C)(C2CCC3(C)C2C(O)CC2C4(C)CCC(OC(=O)C5CCCC5)C(C)(C)C4CCC23C)O1 (centres unmarked) [Compound 2, 3-O-Cyclopentanecarbonyl panaxadiol]	> 2140 µM	1250 µM	> 2140 µM	515 µM	–	–	–
CCCCC(=O)O[C@H]1CC[C@]2(C)[C@H]3C[C@@H](O)[C@@H]4[C@@H]([C@@]5(C)CCCC(C)(C)O5)CC[C@@]4(C)[C@]3(C)CC[C@H]2C1(C)C [Compound 12, 3-O-Valeryl panaxadiol]	> 1580 µM	–	–	> 1580 µM	–	–	–
CC(CC(=O)O)CC(=O)O[C@H]1CC[C@]2(C)[C@H]3C[C@@H](O)[C@@H]4[C@@H]([C@@]5(C)CCCC(C)(C)O5)CC[C@@]4(C)[C@]3(C)CC[C@H]2C1(C)C (some centres unmarked) [Compound 17, 3-O-(3′-Methyl) diglutaryl panaxadiol]	934 µM	–	–	86.3 µM	–	–	–
CC1(C)CCCC(C)(C2CCC3(C)C2C(O)CC2C4(C)CCC(OC(=O)c5ccco5)C(C)(C)C4CCC23C)O1 (centres unmarked) [Compound 3, 3-O-(2′-Furoyl) panaxadiol]	1180 µM	834 µM	1180 µM	50.3 µM	–	–	–
CC(=O)OC1CCC2(C)C(CCC3(C)C2CC(=O)C2C(C4(C)CCCC(C)(C)O4)CCC23C)C1(C)C [Compound 26, (20R)-20,25-Epoxy-3-O-acetoyl-dammaran-12-dione]	> 2280 µM	–	–	–	–	–	–
CC1(C)CCCC(C)(C2CCC3(C)C2C(O)CC2C4(C)CCC(OC(=O)CC5(CC(=O)O)CCCC5)C(C)(C)C4CCC23C)O1 (centres unmarked) [Compound 19, 3-O-(3′,3′-tetramethylene)diglutaryl panaxadiol]	> 1730 µM	> 1730 µM	> 1730 µM	> 432 µM	–	–	–
CC1(C)CCC[C@](C)([C@H]2CC[C@]3(C)[C@@H]2[C@H](O)C[C@@H]2[C@@]4(C)CC[C@H](OC(=O)c5cc(O)c(O)c(O)c5)C(C)(C)[C@@H]4CC[C@]23C)O1 [Compound 10, 3-O-Galloyl panaxadiol]	25.9 µM	45.6 µM	> 1440 µM	7.27 µM	–	60 folds	60 folds
CC1(C)CCCC(C)(C2CCC3(C)C2C(=O)CC2C4(C)CCC(OC(=O)c5cccs5)C(C)(C)C4CCC23C)O1 [Compound 27, (20R)-20,25-Epoxy-3-O-(2′-thenoyl)-dammaran-12-dione]	> 2160 µM	–	–	–	–	–	–
CC(C)(CC(=O)O)CC(=O)O[C@H]1CC[C@]2(C)[C@H]3C[C@@H](O)[C@@H]4[C@@H]([C@@]5(C)CCCC(C)(C)O5)CC[C@@]4(C)[C@]3(C)CC[C@H]2C1(C)C [Compound 18, 3-O-(3′,3′-Dimethyl) glutaryl panaxadiol]	314 µM	933 µM	–	124 µM	–	–	–
CC1(C)CCC[C@](C)([C@H]2CC[C@]3(C)[C@@H]2[C@H](O)C[C@@H]2[C@@]4(C)CC[C@H](OC(=O)c5sccc5Cl)C(C)(C)[C@@H]4CC[C@]23C)O1 [Compound 6, 3-O-(3′-Chloro)-thenoyl panaxadiol]	> 1640 µM	–	280 µM	43.2 µM	–	–	–
CC1(C)CCCC(C)(C2CCC3(C)C2C(O)CC2C4(C)CCC(OC(=O)c5cc6ccccc6s5)C(C)(C)C4CCC23C)O1 (centres unmarked) [Compound 7, 3-O-Benzothiophene-2-carboxyl panaxadiol]	> 1690 µM	–	–	–	–	–	–
CC(=O)OC1CCC2(C)C(CCC3(C)C2CC(O)C2C(C4(C)CCCC(C)(C)O4)CCC23C)C1(C)C (centres unmarked) [Compound 1, 3-O-Acetly-panaxadiol]	> 2060 µM	–	–	–	–	–	–
